Assay results from patent US20250352521A1, “FIXED DOSAGE ANTIBIOTIC COMPOSITIONS” (Entasis Therapeutics Limited, priority 2021, published 2025).

Assays:
[1] = Bulk and tapped density analyses according to USP, with calculated compressibility index and Hausner ratio; format: physicochemical
Experimental: Bulk and tapped density analyses of DUR sodium salt were performed according to USP and the compressibility index (CI) and Hausner ratio was calculated. Typically, a material is considered to have poor flowability if the Hausner ratio is greater than 1.25 and/or if the CI is greater than 25. See e.g., Leroy A. Sherrington, Amal Sherrington, in Analytical Profiles of Drug Substances and Excipients, 1998. […] These experimental values are consistent with the observed powder adhesion.
It has now been found, however, that co-lyophilizing durlobactam sodium salt and sulbactam sodium salt improved flow properties compared to lyophilized durlobactam sodium alone. Initial experiments involved dissolving a 1:1 w/w mixture of durlobactam sodium salt and sulbactam sodium salt in water-for-injection and optimizing the bulk lyophilization conditions (per scale).

[2] = Dry powder filling / machinability trials: powder adhesion to filling equipment; format: physicochemical; details: machine filling of glass vials
Excerpt: Initial attempts to formulate a fixed dosage comprised dry powder filling both DUR sodium salt and SUL sodium salt in glass vials. […] The drawback leads to unreliable and inconsistent product dosing. […] See e.g., the Exemplification section below.
Attempts to develop a commercially feasible fixed-dose combination of durlobactam and sulbactam by dry powder filling both DUR sodium salt and SUL sodium salt (as a 1:1 w/w mixture of each salt form) in glass vials were not successful because of the highly hygroscopic, poor flow properties of DUR sodium salt. […] See e.g., FIG. 1, showing the DUR sodium salt powder residue from the centralized suction and on the feeding chute observed during machinability trials. See also FIG. 2 which depicts the appearance of the DUR sodium salt powder filled product.

[3] = system: class A, C, and D β-lactamases; details: cited from earlier work
[4] = system: A. baumannii complex (ABC) isolates; details: cited from earlier work
Enterobacteriaceae = details: in vitro; cited from earlier work
[5] = calculated from bulk and tapped density

SMILES	Bulk density [1]	Flowability as indicated by Hausner ratio and CI [1]	Tapped density [1]	CI (compressibility index) [1, 5]	Hausner ratio [1, 5]	Hausner ratio ([1]; calculated from bulk and tapped density, listed as DUR sodium salt)	Powder adhesion to the parts of the filling equipment [2]	Inhibition of β-lactamases [3]	Restoration of in vitro activity of sulbactam ([4]; in combination with sulbactam)	Intrinsic activity ([4]; in vitro, durlobactam alone)	Intrinsic antibacterial activity (Enterobacteriaceae)
CC1=C[C@@H]2CN(C(=O)N2OS(=O)(=O)[O-])[C@@H]1C(N)=O.[Na+] [DUR-Na salt, Durlobactam]	0.38 g/mL	extremely poor flowing material	0.61 g/mL	38%	1.6	> 1.6	significant powder adhesion	–	–	–	–
CC1=C[C@@H]2CN(C(=O)N2OS(=O)(=O)O)[C@@H]1C(N)=O [Durlobactam]	–	–	–	–	–	–	–	potent inhibition	restores the in vitro activity of sulbactam	no significant intrinsic activity	intrinsic antibacterial activity against some Enterobacteriaceae
